Experimental data as given in US11485744B2, “High penetration prodrug compositions of antimicrobials and antimicrobial-related compounds” (priority 2009, dated 2022).

Experiments:
[1] = test system: Aspergillus giganteus; experiment: Antifungal MIC in vitro; assay type: cell-based
[2] = test system: Aspergillus tereus; experiment: Antifungal MIC in vitro; assay type: cell-based
[3] = test system: Microsporum canis; experiment: Antifungal MIC in vitro; assay type: cell-based
[4] = Clinical cure of cow mastitis, topical treatment; assay type: in vivo, lactating dairy cows; conditions: cows, 500 mg in 10 ml pH 7.4 phosphate buffer sprayed on skin of udder twice per day
Protocol: (§1) 90 lactating dairy cows were recruited. Bacteriological cure was considered to have been achieved if the samples taken from the affected quarter on day 17 and day 22 were free of the bacterial species isolated in the pretreatment sample. Clinical cure was defined as the disappearance of clinical signs of disease which were observed on day 1 before treatment, in other words by the return to normal feed intake, rectal temperature<39.0° C., good general condition, absence of udder edema, normal milk appearance, and normal milk yield.

[5] = test system: Fusarium aquaductum; experiment: Antifungal MIC in vitro; assay type: cell-based
[6] = test system: Aspergillus nidulans; experiment: Antifungal MIC in vitro; assay type: cell-based
[7] = test system: Candida albicans; experiment: Antifungal MIC in vitro; assay type: cell-based
[8] = Conversion of HPPs to parent drugs in human plasma (half life); assay type: in vitro ADME; conditions: human, plasma
Protocol: HPPs of antimicrobials or antimicrobial-related compounds converted to the parent antimicrobials or antimicrobial-related compounds quickly in good yield in human plasma.
A HPP of antimicrobial or antimicrobial-related compound (10 mg) was dissolved in 0.1 ml of 0.2M pH 7.4 phosphate buffer. 1 ml of human plasma, preheated to 37° C., was added into the mixture. The mixture was kept in a water bath at 37° C., and at every 2 min intervals 0.2 ml of samples were withdrawn and added to 0.4 ml of methanol to precipitate the plasma protein.

[9] = In vitro penetration across isolated human skin in modified Franz cells; conditions: for In vitro Penetration Rate (apparent flux), HPPs: pH 7.4
[10] = test system: Trichophyton mentagrophytes; experiment: Antifungal MIC in vitro; assay type: cell-based
[11] = test system: Aspergillus niger; experiment: Antifungal MIC in vitro; assay type: cell-based
[12] = test system: Staphylococcus aureus; experiment: Bacteriological cure of cow mastitis, topical treatment; assay type: in vivo; conditions: cows, day 22, topical 500 mg twice per day
Protocol: as §1

[13] = test system: E. coli; experiment: as above; assay type: in vivo; conditions: cows, day 22, topical 500 mg twice per day
Protocol: as §1

[14] = test system: Streptococcus uberis; experiment: as above; assay type: in vivo; conditions: cows, day 22, topical 500 mg twice per day
Protocol: as §1

[15] = test system: Coagulase-negative staphylococci; experiment: as above; assay type: in vivo; conditions: cows, day 22, topical 500 mg twice per day
Protocol: as §1

[16] = test system: Enterobacteriaceae; experiment: as above; assay type: in vivo; conditions: cows, day 22, topical 500 mg twice per day
Protocol: as §1

[17] = test system: Penicillium carylophilium; experiment: Antifungal MIC in vitro; assay type: cell-based
[18] = test system: Fusarium oxisporum; experiment: Antifungal MIC in vitro; assay type: cell-based
[19] = test system: methicillin-resistant Staphylococcus aureus (MRSA); experiment: MIC against MRSA; assay type: cell-based; conditions: Staphylococcus aureus, MRSA; Table 6a; read-out: MIC
[20] = test system: K. pneumonlae; experiment: MIC against K. pneumonlae; assay type: cell-based; conditions: Table 6b; combinations antibiotic/inhibitor
[21] = test system: B. fragilis; experiment: MIC against B. fragilis; assay type: cell-based; conditions: Bacteroides fragilis; Table 6b; combinations antibiotic/inhibitor
[22] = test system: E. cloacae; experiment: MIC against E. cloacae; assay type: cell-based; conditions: Enterobacter cloacae; Table 6b; combinations antibiotic/inhibitor

| SMILES | Clinical Cure Rate, Day 3 [4] | Clinical Cure Rate, Day 8 [4] | Clinical Cure Rate, Day 15 [4] | Clinical Cure Rate, Day 22 [4] | Bacteriological cure rate, Staphylococcus aureus [12] | Bacteriological cure, No. cured, Staphylococcus aureus [12] | Bacteriological cure rate, E. coli [13] | Bacteriological cure, No. cured, E. coli [13] | Bacteriological cure rate, Streptococcus uberis [14] | Bacteriological cure, No. cured, Streptococcus uberis [14] | Bacteriological cure rate, Coagulase-negative staphylococci [15] | Bacteriological cure, No. cured, Coagulase-negative staphylococci [15] | Bacteriological cure rate, Enterobacteriaceae [16] | Bacteriological cure, No. cured, Enterobacteriaceae [16] | MIC [20] | MIC [21] | MIC [22] | other results |
| --- | --- | --- | --- | --- | --- | --- | --- | --- | --- | --- | --- | --- | --- | --- | --- | --- | --- | --- |
| CCN(CC)CCOC(=O)C1N2C(=O)C(NC(=O)COc3ccccc3)C2SC1(C)C.Cl (stereo not drawn) [penicillin V-DEE, 6-phenoxyacetacetamidopenicillanic acid 2-diethylaminoethyl ester hydrochloride] | 50% | 90% | 93% | 97% | 67% | 4 | 87.5% | 7 | 80% | 8 | 78% | 7 | 85.7% | 6 | – | – | – | Minimum inhibitory concentration, Aspergillus giganteus [1]: 3 µg/mL; Minimum inhibitory concentration, Aspergillus tereus [2]: 2 µg/mL; Minimum inhibitory concentration, Microsporum canis [3]: 2 µg/mL; Minimum inhibitory concentration, Fusarium aquaductum [5]: 2 µg/mL; Minimum inhibitory concentration, Aspergillus nidulans [6]: 3 µg/mL; Minimum inhibitory concentration, Candida albicans [7]: 7 µg/mL; Half life of HPPs in plasma [8]: 8 ± 1 min; In vitro Penetration Rate (apparent flux), HPPs [9]: 0.72 ± 0.06 mg/cm^2/h; Minimum inhibitory concentration, Trichophyton mentagrophytes [10]: 12 µg/mL; Minimum inhibitory concentration, Aspergillus niger [11]: 3 µg/mL; Minimum inhibitory concentration, Penicillium carylophilium [17]: 2 µg/mL; Minimum inhibitory concentration, Fusarium oxisporum [18]: 3 µg/mL |
| CCN(CC)CCOC(=O)C1=CCSC2C(NC(=O)C(=NOC)c3csc(NC(C)=O)n3)C(=O)N12.Cl (stereo not drawn) [ceftizoxime-DEE, 7-[[(2-acetylamino-4-thiazolyl)(methoxyimino)acetyl]amino]-8-oxo-5-thia-1-azabicyclo[4.2.0]oct-2-ene-2-carboxylic acid 2-diethylaminoethyl ester hydrochloride] | 53% | 93% | 99% | 100% | 83% | 5 | 87.5% | 7 | 82% | 9 | 87.5% | 7 | 83.3% | 5 | – | – | – | MIC [19]: 0.5 µg/mL; MIC ([1]; Aspergillus giganteus, read-out: Minimum inhibitory concentration, Aspergillus giganteus): 5 µg/mL; MIC ([2]; Aspergillus, read-out: Minimum inhibitory concentration, Aspergillus tereus): 4 µg/mL; MIC ([3]; Microsporum canis, read-out: Minimum inhibitory concentration, Microsporum canis): 2 µg/mL; MIC ([5]; Fusarium, read-out: Minimum inhibitory concentration, Fusarium aquaductum): 3 µg/mL; MIC ([6]; Aspergillus nidulans, read-out: Minimum inhibitory concentration, Aspergillus nidulans): 4 µg/mL; MIC ([7]; Candida albicans, read-out: Minimum inhibitory concentration, Candida albicans): 8 µg/mL; half-life at 9.1 mg/mL ([8]; pH 7.4): 11 min; In vitro Penetration Rate (apparent flux), HPPs ([9]; human, 10 %): 0.62 ± 0.05 mg/cm^2/h; MIC ([10]; Trichophyton mentagrophytes, read-out: Minimum inhibitory concentration, Trichophyton mentagrophytes): 9 µg/mL; MIC ([11]; Aspergillus niger, read-out: Minimum inhibitory concentration, Aspergillus niger): 4 µg/mL; MIC ([17]; Penicillium, read-out: Minimum inhibitory concentration, Penicillium carylophilium): 3 µg/mL; MIC ([18]; Fusarium, read-out: Minimum inhibitory concentration, Fusarium oxisporum): 5 µg/mL |
| CC1(C)S[C@@H]2[C@H](NC(=O)[C@H](N)c3ccccc3)C(=O)N2[C@H]1C(=O)O [Ampicillin] | – | – | – | – | – | – | – | – | – | – | – | – | – | – | 0.3 µg/mL | 68 µg/mL | 5 µg/mL | In vitro Penetration Rate (apparent flux), Parent compounds ([9]; Table 1a, isolated human skin, Franz cells, 10% in 0.2 M phosphate buffer pH 7.4, n=5): <0.015 mg/cm^2/h |
| CO/N=C(\C(=O)N[C@@H]1C(=O)N2C(C(=O)O)=C(CSc3nc(=O)c(=O)[nH]n3C)CS[C@H]12)c1csc(N)n1 [Ceftriaxone] | – | – | – | – | – | – | – | – | – | – | – | – | – | – | 0.5 µg/mL | 8 µg/mL | 1 µg/mL | – |
